# Experimental data as given in patent publication US20050234113A1, “Antioxidant and radical scavenging activity of synthetic analogs of desferrithiocin” (University of Florida Research Foundation, Inc., priority 2002, published 2005).
# “And” between values parts separate entries of the source, which are not always exact repeats. Equal values may be shown once. Read-outs that look alike come from different tables or passages of the source.
# Key:
# [1] = test system: Myeloperoxidase (MPO) activity in colonic tissue; assay: Myeloperoxidase (MPO) assay in colonic tissue of rats with acetic acid-induced colitis; type: in vivo; settings: 650 μmol kg^−1 intracolonically 30 min before 4% acetic acid, mean ± standard deviation
# Description: (§1) The ligands were administered to the rats intracolonically as a suspension or solution in distilled water (2 mL) at a dose of 650 μmol kg^−1. The drug solutions were made fresh for each experiment. ROWASA®, the pharmaceutical preparation which contains 5-ASA (2 mL, 66.7 mg mL^−1) was given at a dose of 2318 μmol kg^−1. Control rats received distilled water (2 mL), administered intracolonically.
# (§2) Animal care and experimental procedures were approved by the Institutional Animal Care and Use Committee. Colitis was induced by a modification of published methods. Briefly, the rats were anesthetized with sodium pentobarbital, 55 mg kg^−1 intraperitoneally. The abdomen was shaved and prepared for surgery. A midline incision was made, and the cecum and proximal colon were exteriorized. A reversible suture was placed at the junction of the cecum and proximal colon. The colon was rinsed with saline (10 mL), and the fluid and intestinal contents were gently expressed out the rectum. A gum-based rectal plug was inserted. The compound of interest, or distilled water in the control animals (2 mL), was injected intracolonically just distal to the ligature. The cecum and proximal colon were returned to the abdominal cavity; the compound was allowed to remain in the gut for 30 min. Then, the cecum and proximal colon were reexteriorized. The rectal plug was removed, and the drug was gently expressed out of the colon. Acetic acid (4%, 2 mL) was injected into the proximal colon over a 15-20-second time period. The acid was allowed to remain in the gut until one minute had passed (i.e., 40-45 seconds after the end of the acid administration). The no acid control rats received distilled water (2 mL), which was administered in the same manner as was the acetic acid. Air (10 mL) was then injected into the proximal colon to expel the acid or water. The cecal/proximal colon ligature was removed, the gut was returned to the abdominal cavity, and the incisions were closed. The animals were allowed to recover overnight and were sacrificed 24 hr later. The entire length of the colon was removed and assessed for damage both densitometrically and biochemically.
# The activity of MPO was measured in colonic tissue by a modification of the method of Krawisz et al. in Gastroenterology 87, 1344-1350 (1984). Each excised colon was homogenized in 9 volumes of homogenization buffer (0.5% hexadecyltrimethylammonium bromide (HDTMA) in 50 mM sodium acetate, pH 6.0); this homogenate was centrifuged at 1200 g for 20 min at 4° C. A sample of the supernatant (1.8 mL) was transferred into a microcentrifuge tube and stored frozen at −20° C. for up to one week. Prior to assay, the thawed aliquot was centrifuged at about 10,000 g for 15 minutes at 4° C. The final supernatant (33 μL) was added to a solution of o-dianisidine HCl (0.17 mg mL^−1 in 50 mM sodium acetate, pH 6.0, made fresh daily and filtered immediately before use) (950 μL), the mixture was vortexed, and the peroxidase reaction was initiated by the addition of H2O2 to 50 mM sodium acetate, pH 6.0, made fresh daily (16.7 μL). The A470 at room temperature (ca. 23° C.) was read at 15-second intervals for 2 min. The rates were assessed graphically and are presented as change in milliabsorbance units (ΔmAU)/min per g tissue. Under these conditions, 0.1 “Unit” of purified human leukocyte myeloperoxidase (Sigma M-6908) produced a ΔA470 of about 400 mAU/min.
# The biochemical measurement involves measuring the level of MPO in a sample of homogenate of the whole rat colon. When the colon is damaged by the acetic acid, there is an extravasation of neutrophils. The extent of this infiltration can serve as a quantitative marker for tissue damage. Although other leukocytes, such as eosinophils and monocytes, also contribute to the inflammatory response, their contribution is small; the majority of the cells recruited during the acute inflammatory response are neutrophils. […]
# [2] = test system: acetic acid-induced colitis; assay: Acetic acid-induced colitis in rats, densitometric image analysis of colonic damage; type: in vivo; settings: for Damage (%): 650 μmol kg^−1 intracolonically 30 min before 4% acetic acid, mean ± standard deviation
# Description: as §1, §2
# Gross damage was quantitated using Photoshop-based image analysis (version 5.0, Adobe Systems, Mountain View, Calif., USA) on an Apple iMac computer. The Magic Wand tool in the Select menu of Photoshop was used to place the cursor on an area of obvious damage. The tolerance level of the Magic Wand tool was set at 30. The damaged areas were automatically selected by using the Similar command in the Select menu. Then, the Eyedropper tool was used to determine the range of the damage in the highlighted areas. Individual colon images were copied to a blank Photoshop page. The Magic Wand tool, with a tolerance set to 100, was used to select all of the pixels in the colon sample. Then, the Histogram tool, which generates a graph in which each vertical line represents the number of pixels associated with a brightness level, was selected in the Image menu. The Red channel was then selected; the darker (damaged areas) appear on the left side of the histogram and the lighter (normal) areas are on the right side. The cursor was then placed on the histogram, the color range determined in an earlier step was selected, and the number of pixels encompassing that range and the percent damage were quantified automatically.
# Two means were employed to assess the damage to the colon in the presence and absence of ligand, computer-based image analysis and colonic MPO measurement. The densitometric method removes much of the subjectivity involved in the simple scoring approaches. A digital image of the prepared colonic tissue is taken, and a clearly damaged segment is highlighted on the screen. Once the computer identifies all other segments of the intestine with the same or greater damage, a pixel number is generated; this number makes it possible to calculate the percentage of damaged intestine.
# [3] = test system: iron; settings: cited from earlier work
# [4] = 150 μmol/kg sc, suspension in water, n = 3
# [5] = 300 μmol/kg po, in 40% Cremophor
# [6] = 150 μmol/kg po (footnote d: dose administered, 300 μmol/kg)
SMILES,MPO activity [1],Damage (%) [2],"protection against acetic acid-induced colonic damage (in words) ([2]; intracolonic, image analysis and MPO assay)","% stool (of iron excreted), monkeys [3, 4]","% urine (of iron excreted), monkeys [3, 4]","efficiency in monkeys (%) [3, 4]","% stool (of iron excreted), monkeys [3, 5]","% urine (of iron excreted), monkeys [3, 5]","efficiency in monkeys (%) [3, 5]","% stool (of iron excreted), monkeys [3, 6]","% urine (of iron excreted), monkeys [3, 6]","efficiency in monkeys (%) [3, 6]","% stool (of iron excreted), monkeys ([3]; 150 μmol/kg sc, n = 5)","% urine (of iron excreted), monkeys ([3]; 150 μmol/kg sc, n = 5)","efficiency in monkeys (%) ([3]; 150 μmol/kg sc, n = 5)"
"O=C(O)[C@H]1CSC(c2ccc(O)cc2O)=N1 [4′-(HO)-DADMDFT, 4′-hydroxydesazadesmethyldesferrithiocin]",56466 ± 52617 mAU min^−1g of colonic tissue^−1,57 ± 15%,ineffective,92%,8%,5.6±0.9% and 5.6 ± 0.9^f %,90%,10%,5.3±1.7% and 5.3 ± 1.7^f %,–,–,–,–,–,–
"CC(=O)N(O)CCCCCNC(=O)CCC(=O)N(O)CCCCCNC(=O)CCC(=O)N(O)CCCCCN [DFO, Desferrioxamine B, reference compound]",20049 ± 17314 mAU min^−1g of colonic tissue^−1,39 ± 15%,–,–,–,–,–,–,–,55%,45%,0.1±0.4% and 0.1 ± 0.4^d %,45%,55%,5.5±0.9%
